Measured values published in patent publication US9156826B2, “Asymmetrical reversible neuromuscular blocking agents of ultra-short, short, or intermediate duration” (Cornell University, priority 2012, dated 2015).
“Also recorded” adds a separate entry of the source. Where two headings read alike, the source gives them in different places.

Assays:
Format in all cases: in vivo, rhesus monkey (Macaca mulatta)
[1] = system: twitch responses of the extensor digitorum of the foot (peroneal nerve stimulation); experiment: Neuromuscular blocking potency and duration: twitch blockade dose-response in anesthetized rhesus monkeys; conditions: for ED95: Macaca mulatta; for Duration (min ± SD): at the actual dose administered, injection to recovery of twitch to 95% of control; for Blockade (%) / Onset / Total Duration: Table 3, dose 0.064 ± 0.010 (gantacurium) or 0.060 ± 0.012 mg/kg (CW1759-50)
Experimental: (§1) Selected NMBA compounds were tested as described in PCT/US2010/000796 application by an inventor herein, published as WO2010/107488, which is incorporated by reference, see pages 66-78. Dose-response curves for twitch blockade by test compounds were generated as described. […] Successive doses were separated by at least three estimated half lives beyond complete recovery of the previous dose to TOF of 110-120%, which is normal for these monkeys. Only the first one or two doses yielding 5 to 99% blockade were included from any single experiment for computation of dose-response data. Comparative studies of spontaneous recovery versus antagonism/reversal were done at least 3 estimated half-lives following dose-response studies. ED50 and ED95 were computed from the regression of log dose vs. the logit of percentage blockade of twitch.
Experiments were approved by the Institutional Animal Care and Use Committee of Weill Medical College of Cornell University (New York, N.Y.) and of Albany Medical College (Albany, N.Y.), where the studies were conducted. A colony of 10 adult male monkeys (Macaca mulatta) weighing 8-18 kg was studied at ˜6 week intervals. Animals were housed and cared for in accordance with the Guide for Care and Use of Laboratory Animals (National Research Council, Washington, D.C.). They were fed a standard Old World monkey diet, enriched with fruits and vegetables, and other dietary novelties and were followed throughout the study to verify normal health by physical examination, body weight, and clinical laboratory studies (Complete Blood Count, Blood Urea Nitrogen and creatinine, and liver function tests).
(§2) On the day of each study, monkeys received ketamine (7-10 mg/kg i.m.) followed by tracheal intubation under topical anesthesia with 4% lidocaine. Ventilation was controlled at 10 mL/kg and 20 breaths/min with isoflurane (1.0-2.0%) and N2O/O2 (2:1 mixture). Ringers lactate was administered at ˜10 ml kg^−1 h^−1. Arterial pressure was monitored from a femoral, superficial tibial, or radial (22 gauge) cannula. Heart rate was measured by tachograph from the arterial pulse wave. Core temperature was kept at 36.5-38.0° C. by warming blankets. Electrocardiogram and pulse oximetry were monitored continuously.
(§3) Needle electrodes (25 gauge) transmitting square-wave pulses of 0.2 msec duration at supramaximal voltage which were generated by a Grass S-88 stimulator (Grass Instruments, Quincy, Mass.) were placed at the peroneal nerve at the knee to elicit twitch responses of the extensor digitorum of the foot at 0.15 Hz. A small slip (10-20%) of the tendon was dissected free under sterile technique and tied to a Grass FT 10 force transducer (Grass Instruments, Quincy, Mass.) at a baseline tension of 50 gm. Train-of four stimulation (TOF, 2 Hz for 2 sec) was interposed at appropriate points, especially 1-2 min prior to NMBA dosing and following recovery of twitch to 95% of baseline, where TOF was subsequently evaluated every 1-2 min.
(§4) Recordings of circulatory and neuromuscular data were made on a Grass 7B polygraph (Grass Instruments). A baseline period of 15-20 min was allowed for stabilization of recordings prior to dosing.^2
Dose-response curves for twitch blockade by gantacurium, CW 002, CW 011, cisatracurium, CW002-Cys, NB 938-69, NB 1064-81, NB 802-17 (CW 001), NB 832-65, and NB 1163-79, structures of which are all shown above, were generated as follows. […] Successive doses were separated by at least three estimated half lives beyond complete recovery of the previous dose to TOF of 110-120%, which is normal for these monkeys. Only the first one or two doses yielding 5 to 99% blockade were included from any single experiment for computation of dose-response data.
ED 50 and ED 95 were computed from the regression of log dose vs. the logit of percentage blockade of twitch.

[2] = system: twitch responses of the extensor digitorum of the foot (peroneal nerve stimulation); experiment: Spontaneous recovery versus reversal of neuromuscular blockade by cysteine in monkeys; conditions: for Reversibility (Cysteine): Table 1, reversal of the blockade by cysteine; for Total Duration (Spontaneous Recovery): injection to 95% twitch height
Experimental: as §1, §2, §3
Comparative studies of spontaneous recovery versus antagonism/reversal were done at least 3 estimated half-lives following dose-response studies.

[3] = system: blood pressure and heart rate; experiment: Circulatory effects (arterial pressure, heart rate) during neuromuscular blockade in rhesus monkeys; conditions: rhesus monkey
Experimental: Thus, the undesired side effect of tachycardia is not induced by a compound of the invention at a dose effective to induce NMB.
as §2, §4

[4] = Table 1, calculated dose for 95% block of twitch, monkeys, read-out: ED 95

Q: Which results are given for `COc1cc2c(cc1OC)[C@@H](Cc1cc(OC)c(OC)c(OC)c1)[N@+](C)(CCCOC(=O)/C(Cl)=C/C(=O)OCCC[N+]1(Cc3ccc4c(c3)OCCO4)CCOCC1)CC2` [Compound 1598-46]?
A: ED95 [1]: 0.1 mg/kg; Duration (min ± SD) ([1]; Table 1): 6.8 ± 2.3 min; Reversibility (Cysteine) [2]: Yes

Q: How did the ED95 [1] turn out when `COc1ccc(C[C@@H]2c3cc(OC)c(OC)cc3CC[N@@+]2(C)CCCOC(=O)/C(Cl)=C/C(=O)OCCC[N+]2(Cc3ccc(OC)c(OC)c3)CCOCC2)cc1OC` [Compound 1521-74] was run?
A: 0.16 mg/kg

Q: And the “Duration (min ± SD)” value ([1]; Table 1)?
A: 4.3 ± 1.1 min

Q: What about the “Reversibility (Cysteine)” value [2] of the same molecule?
A: Yes

Q: With `COc1ccc(C[C@@H]2c3cc(OC)c(OC)cc3CC[N@@+]2(C)CCCOC(=O)/C=C\C(=O)OCCC[N+]2(Cc3cc(OC)c(OC)c(OC)c3)CCOCC2)cc1` [Compound 1759-58] as the molecule, how does the ED95 [1] read?
A: 0.064 mg/kg

Q: And the “Duration (min ± SD)” value ([1]; Table 1)?
A: 6 to 8 min

Q: And the “Reversibility (Cysteine)” value [2]?
A: Yes

Q: Which “effect on blood pressure” value ([3]; 0.06 mg/kg dose, FIG. 2) does the source give for `COc1ccc(C[C@@H]2c3cc(OC)c(OC)cc3CC[N@@+]2(C)CCCOC(=O)/C=C\C(=O)OCCC[N+]2(Cc3ccc(OC)c(OC)c3)CCOCC2)cc1` [Compound 1726-01] here?
A: no apparent effect on blood pressure

Q: What about the “effect on heart rate / tachycardia” value ([3]; 0.06 mg/kg, dose effective to induce NMB) of the same molecule?
A: no apparent effect on heart rate

Q: What about the “duration of neuromuscular blockade (spontaneous recovery, FIG. 2)” value ([1]; 0.06 mg/kg dose, rhesus monkey) of the same molecule?
A: about six

Q: What about the ED95 [1, 4] of the same molecule?
A: 0.05 mg/kg

Q: And the “Duration (min ± SD)” value ([1]; Table 1)?
A: 7.6 ± 2.4 min

Q: What about the “Blockade (%)” value [1] of the same molecule?
A: 99.3 ± 0.2%

Q: What about the “Onset” value [1] of the same molecule?
A: 94.0 ± 8.7 s

Q: And the “Total Duration” value [1]?
A: 8.2 ± 1.5 min

Q: And the “potency compared with gantacurium (% blockade, time to onset, total duration of effect)” value ([1]; Table 3 comparison)?
A: comparable to gantacurium in potency

Q: What about the “ED95 (statistical analysis of dose-response study, FIG. 1)” value ([1]; rhesus monkeys) of the same molecule?
A: 0.054 ± 0.0022 mg/kg

Q: What about the “spontaneous reversal of blockade time (FIG. 4)” value ([2]; 100% block) of the same molecule?
A: more than 10 minutes

Q: And the “cysteine-induced reversal time (FIG. 4)” value ([2]; 100% block, 30 mg/kg L-cysteine hydrochloride)?
A: ≤ 2 min

Q: And the “5-95% Interval with L-Cysteine” value ([2]; L-cysteine 30 mg/kg at +1 min following bolus 0.2 mg/kg (4x ED95), Point A)?
A: 1.9 ± 0.2

Q: What about the “5-95% Interval with L-Cysteine” value ([2]; L-cysteine 30 mg/kg at +1 min following discontinuation of infusion (30-120 mins), Point B) of the same molecule?
A: 2.1 ± 0.2

Q: And the “Reversibility (Cysteine)” value [2]?
A: Yes

Q: And the “5-95% Interval (Spontaneous Recovery)” value ([2]; bolus 0.2 mg/kg (4x ED95), Point A)?
A: 6.2 ± 0.2

Q: And the “Total Duration (Spontaneous Recovery)” value ([2]; bolus 0.2 mg/kg (4x ED95))?
A: 11.9 ± 0.3 min

Q: What about the “5-95% Interval (Spontaneous Recovery)” value ([2]; bolus 0.05-0.06 mg/kg (ED99)) of the same molecule?
A: 5.2 ± 0.2

Q: What about the “Total Duration (Spontaneous Recovery)” value ([2]; bolus 0.05-0.06 mg/kg (ED99)) of the same molecule?
A: 7.3 ± 0.3 min

Q: And the “dependence of recovery (5-95% twitch recovery interval) on dosage or duration of infusion (FIG. 5)” value ([2]; bolus or infusion, spontaneous or L-cysteine induced recovery, listed as 1759-50)?
A: not significantly effected by the previous duration of infusion; also recorded: unaffected by dosage or duration of infusion

Q: What about the “5-95% Interval (Spontaneous Recovery)” value ([2]; continuous infusions, 30-120 mins, Point B) of the same molecule?
A: 5.2 ± 0.3

Q: What about the “spontaneous reversal time (FIG. 3)” value ([2]; dose of 4x the ED95 dose) of the same molecule?
A: about 11 minutes

Q: And the “time to termination of blockade following L-cysteine administration (FIG. 3)” value ([2]; dose of 4x the ED95 dose, 30 mg/kg L-cysteine hydrochloride)?
A: about two

Q: For `COc1ccc(C[C@@H]2c3cc(OC)c(OC)cc3CC[N@@+]2(C)CCCOC(=O)/C=C\C(=O)OCCC[N+]2(Cc3ccc(OC)c(OC)c3OC)CCCC2)cc1OC` [Compound 1449-35], which ED95 [1] is on record?
A: 0.126 mg/kg

Q: What about the “Duration (min ± SD)” value ([1]; Table 1) of the same molecule?
A: 5 min

Q: What about the “Reversibility (Cysteine)” value [2] of the same molecule?
A: Yes

Q: For `COc1ccc(C[N+]2(CCCOC(=O)/C=C(\Cl)C(=O)OCCC[N@+]3(C)CCc4cc(OC)c(OC)cc4[C@H]3Cc3cc(OC)c(OC)c(OC)c3)CCOCC2)cc1OC` [Compound 1566-01], which ED95 [1] is on record?
A: 0.61 mg/kg

Q: And the “Duration (min ± SD)” value ([1]; Table 1)?
A: 8 min

Q: And the “Reversibility (Cysteine)” value [2]?
A: Yes

Q: Which ED95 [1, 4] does the source give for `COc1cc2c(cc1OC)[C@@H](Cc1cc(OC)c(OC)c(OC)c1)[N@+](C)(CCCOC(=O)/C(Cl)=C/C(=O)OCCC[N+]1(Cc3cc(OC)c(OC)c(OC)c3)CCCC1)CC2` [Compound 1326-69] here?
A: 0.11 mg/kg

Q: And the “Duration (min ± SD)” value ([1]; Table 1)?
A: 4.5 ± 1.8 min

Q: And the “Reversibility (Cysteine)” value [2]?
A: Yes

Q: Which “Blockade (%)” value [1] does the source give for `COc1cc2c(cc1OC)[C@H](c1cc(OC)c(OC)c(OC)c1)[N@@+](C)(CCCOC(=O)/C=C(\Cl)C(=O)OCCC[N@+]1(C)CCc3cc(OC)c(OC)cc3[C@H]1Cc1cc(OC)c(OC)c(OC)c1)CC2` [Gantacurium, gantacurium, reference compound] here?
A: 99.2 ± 0.5%

Q: What about the “Onset” value [1] of the same molecule?
A: 97.1 ± 11.7 s

Q: What about the “Total Duration” value [1] of the same molecule?
A: 7.4 ± 1.9 min

Q: What about the “ED95 in a control study” value ([1]; rhesus monkeys, control study for comparison) of the same molecule?
A: 0.063 ± 0.0021 mg·kg

Q: How did the ED95 [1] turn out when `COc1ccc(C[C@@H]2c3cc(OC)c(OC)cc3CC[N@@+]2(C)CCCOC(=O)/C=C\C(=O)OCCC[N+]2(Cc3ccc(OC)cc3)CCOCC2)cc1` [Compound 1625-05] was run?
A: 0.09 mg/kg

Q: What about the “Duration (min ± SD)” value ([1]; Table 1) of the same molecule?
A: 6 min

Q: What about the “Reversibility (Cysteine)” value [2] of the same molecule?
A: Yes
